Assay results reported in ChEMBL document CHEMBL5291721, “A preclinical secondary pharmacology resource illuminates target-adverse drug reaction associations of marketed drugs” (Nat Commun, 2023).

Legend:
[1] = target: Sodium-dependent serotonin transporter (Homo sapiens, UniProt P31645)
[2] = target: T1, Alpha-1A adrenergic receptor (Homo sapiens, UniProt P35348); type: functional, cell-based
T1 sequence (P35348 whole entry): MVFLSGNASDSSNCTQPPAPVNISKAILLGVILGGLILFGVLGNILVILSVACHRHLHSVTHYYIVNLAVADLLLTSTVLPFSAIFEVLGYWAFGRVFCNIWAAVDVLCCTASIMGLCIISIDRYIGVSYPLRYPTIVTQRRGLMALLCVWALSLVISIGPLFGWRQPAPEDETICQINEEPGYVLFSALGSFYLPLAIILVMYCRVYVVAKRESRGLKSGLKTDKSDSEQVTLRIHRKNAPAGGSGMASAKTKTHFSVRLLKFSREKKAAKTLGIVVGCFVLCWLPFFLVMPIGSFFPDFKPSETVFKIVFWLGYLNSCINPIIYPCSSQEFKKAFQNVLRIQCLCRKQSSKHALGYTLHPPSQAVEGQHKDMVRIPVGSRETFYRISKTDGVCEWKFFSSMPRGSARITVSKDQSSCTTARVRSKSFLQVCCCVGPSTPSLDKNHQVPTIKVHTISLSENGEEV

Cannabinoid receptor 1 = Cannabinoid receptor 1 (Homo sapiens, UniProt P21554); type: functional, cell-based
[3] = target: T2, Muscarinic acetylcholine receptor M1 (Homo sapiens, UniProt P11229); type: functional
T2 sequence (P11229 whole entry): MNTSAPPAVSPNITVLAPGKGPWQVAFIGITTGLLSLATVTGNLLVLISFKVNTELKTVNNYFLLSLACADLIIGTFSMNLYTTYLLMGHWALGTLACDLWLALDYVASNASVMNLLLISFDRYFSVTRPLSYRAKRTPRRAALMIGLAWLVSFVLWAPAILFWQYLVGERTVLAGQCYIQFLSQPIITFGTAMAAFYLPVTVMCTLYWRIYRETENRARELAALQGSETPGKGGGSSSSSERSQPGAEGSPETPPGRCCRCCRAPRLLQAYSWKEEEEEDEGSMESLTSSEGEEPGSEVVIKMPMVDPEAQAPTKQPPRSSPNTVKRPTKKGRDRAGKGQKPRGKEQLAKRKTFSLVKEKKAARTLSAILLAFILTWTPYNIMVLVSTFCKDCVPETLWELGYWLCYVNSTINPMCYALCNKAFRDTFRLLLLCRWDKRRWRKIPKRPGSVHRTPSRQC

[4] = target: T3, 5-hydroxytryptamine receptor 1A (Homo sapiens, UniProt P08908); type: functional, cell-based
T3 sequence (P08908 whole entry): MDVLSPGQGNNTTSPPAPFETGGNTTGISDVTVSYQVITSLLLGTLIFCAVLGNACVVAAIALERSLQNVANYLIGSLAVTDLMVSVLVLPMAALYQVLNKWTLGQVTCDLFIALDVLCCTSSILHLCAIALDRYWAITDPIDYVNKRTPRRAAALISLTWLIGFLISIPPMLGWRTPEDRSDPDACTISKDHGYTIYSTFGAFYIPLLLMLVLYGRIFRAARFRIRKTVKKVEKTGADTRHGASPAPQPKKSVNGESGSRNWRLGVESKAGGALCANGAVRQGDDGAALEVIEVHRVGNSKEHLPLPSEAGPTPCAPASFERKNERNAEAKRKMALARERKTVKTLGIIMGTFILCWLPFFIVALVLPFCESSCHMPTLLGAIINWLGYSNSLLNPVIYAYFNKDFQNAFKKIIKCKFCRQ

[5] = target: T4, 5-hydroxytryptamine receptor 2C (Homo sapiens, UniProt P28335)
T4 sequence (P28335 whole entry): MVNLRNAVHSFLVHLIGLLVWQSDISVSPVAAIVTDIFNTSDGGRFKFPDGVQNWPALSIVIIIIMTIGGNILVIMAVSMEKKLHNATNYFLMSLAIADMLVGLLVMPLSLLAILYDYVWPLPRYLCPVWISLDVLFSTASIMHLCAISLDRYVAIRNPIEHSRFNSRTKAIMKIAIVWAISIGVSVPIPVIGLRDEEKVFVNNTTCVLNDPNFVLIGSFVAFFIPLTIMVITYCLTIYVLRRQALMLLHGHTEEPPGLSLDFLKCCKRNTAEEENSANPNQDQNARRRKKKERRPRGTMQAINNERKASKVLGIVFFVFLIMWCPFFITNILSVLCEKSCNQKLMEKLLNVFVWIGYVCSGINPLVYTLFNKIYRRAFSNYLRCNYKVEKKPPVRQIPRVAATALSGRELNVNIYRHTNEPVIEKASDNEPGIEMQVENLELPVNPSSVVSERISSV

[6] = target: Sodium-dependent noradrenaline transporter (Homo sapiens, UniProt P23975)
[7] = target: cGMP-inhibited 3',5'-cyclic phosphodiesterase 3A (Homo sapiens, UniProt Q14432); type: functional
[8] = target: T3, 5-hydroxytryptamine receptor 1A; type: functional, cell-based; remark: listed apart in the source
[9] = target: 5-hydroxytryptamine receptor 2B (Homo sapiens, UniProt P41595); type: functional, cell-based
Melanocortin receptor 3 = Melanocortin receptor 3 (Homo sapiens, UniProt P41968)
Histamine H2 receptor = Histamine H2 receptor (Homo sapiens, UniProt P25021); type: functional, cell-based
[10] = target: Kappa-type opioid receptor (Homo sapiens, UniProt P41145)
[11] = target: T5, Gastrin/cholecystokinin type B receptor (Homo sapiens, UniProt P32239)
T5 sequence (P32239 whole entry): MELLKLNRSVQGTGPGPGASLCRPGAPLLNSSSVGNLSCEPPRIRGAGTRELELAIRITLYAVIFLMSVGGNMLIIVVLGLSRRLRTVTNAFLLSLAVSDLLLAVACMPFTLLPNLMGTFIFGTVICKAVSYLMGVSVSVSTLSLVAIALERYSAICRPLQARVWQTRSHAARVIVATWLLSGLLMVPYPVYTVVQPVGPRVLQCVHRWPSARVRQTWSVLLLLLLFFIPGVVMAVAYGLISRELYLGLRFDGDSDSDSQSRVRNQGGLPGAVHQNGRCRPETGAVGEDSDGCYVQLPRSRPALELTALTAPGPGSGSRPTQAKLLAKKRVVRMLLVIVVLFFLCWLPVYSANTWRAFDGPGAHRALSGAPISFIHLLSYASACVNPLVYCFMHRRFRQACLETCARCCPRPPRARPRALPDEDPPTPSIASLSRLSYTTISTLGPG

[12] = target: Voltage-dependent L-type calcium channel subunit alpha-1C (Rattus norvegicus, UniProt P22002); type: functional
Note: assay procedure not described here.

Chain of Sodium-dependent serotonin transporter (P31645 whole entry): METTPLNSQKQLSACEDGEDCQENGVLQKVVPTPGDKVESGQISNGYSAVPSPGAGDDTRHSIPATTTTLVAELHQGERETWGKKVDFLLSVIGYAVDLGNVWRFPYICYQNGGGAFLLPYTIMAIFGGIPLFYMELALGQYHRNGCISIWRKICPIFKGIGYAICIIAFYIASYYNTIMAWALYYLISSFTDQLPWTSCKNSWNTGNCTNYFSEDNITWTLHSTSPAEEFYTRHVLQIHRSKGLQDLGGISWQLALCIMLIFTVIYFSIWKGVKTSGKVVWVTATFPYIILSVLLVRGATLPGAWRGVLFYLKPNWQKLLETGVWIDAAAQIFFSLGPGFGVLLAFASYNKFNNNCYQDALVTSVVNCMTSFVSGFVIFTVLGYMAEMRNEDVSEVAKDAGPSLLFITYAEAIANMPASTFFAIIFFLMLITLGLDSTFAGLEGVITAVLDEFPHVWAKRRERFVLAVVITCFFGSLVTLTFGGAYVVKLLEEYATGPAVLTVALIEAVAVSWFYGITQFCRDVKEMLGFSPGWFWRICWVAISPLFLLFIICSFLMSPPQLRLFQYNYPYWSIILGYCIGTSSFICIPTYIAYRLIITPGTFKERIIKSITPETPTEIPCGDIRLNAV
Chain of Sodium-dependent noradrenaline transporter (P23975 whole entry): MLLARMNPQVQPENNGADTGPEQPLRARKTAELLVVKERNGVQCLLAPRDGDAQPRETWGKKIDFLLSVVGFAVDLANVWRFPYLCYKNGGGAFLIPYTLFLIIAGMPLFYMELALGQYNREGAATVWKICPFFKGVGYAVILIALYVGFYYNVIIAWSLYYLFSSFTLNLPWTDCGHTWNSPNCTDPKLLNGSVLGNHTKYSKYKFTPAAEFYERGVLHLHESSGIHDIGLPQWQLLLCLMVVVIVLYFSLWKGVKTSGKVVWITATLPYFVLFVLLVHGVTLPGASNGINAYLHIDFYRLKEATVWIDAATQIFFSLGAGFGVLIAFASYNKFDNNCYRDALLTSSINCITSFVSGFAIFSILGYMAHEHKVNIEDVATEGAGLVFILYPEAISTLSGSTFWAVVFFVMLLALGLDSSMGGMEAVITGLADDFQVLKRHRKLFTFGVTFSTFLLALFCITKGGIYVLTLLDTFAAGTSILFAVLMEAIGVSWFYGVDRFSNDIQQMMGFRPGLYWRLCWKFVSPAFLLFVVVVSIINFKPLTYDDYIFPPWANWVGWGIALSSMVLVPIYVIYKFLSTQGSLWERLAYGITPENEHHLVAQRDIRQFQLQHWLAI
Chain of Histamine H2 receptor (P25021 whole entry): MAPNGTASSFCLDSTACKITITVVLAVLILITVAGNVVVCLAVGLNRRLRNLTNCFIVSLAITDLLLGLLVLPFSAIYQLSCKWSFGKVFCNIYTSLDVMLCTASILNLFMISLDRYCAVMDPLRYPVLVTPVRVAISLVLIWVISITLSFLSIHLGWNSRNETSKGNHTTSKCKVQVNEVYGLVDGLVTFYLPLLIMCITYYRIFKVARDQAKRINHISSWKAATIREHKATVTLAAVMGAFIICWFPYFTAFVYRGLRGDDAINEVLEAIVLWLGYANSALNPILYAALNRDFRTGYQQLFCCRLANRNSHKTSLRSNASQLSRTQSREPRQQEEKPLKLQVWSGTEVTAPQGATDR
Chain of Voltage-dependent L-type calcium channel subunit alpha-1C (P22002 whole entry): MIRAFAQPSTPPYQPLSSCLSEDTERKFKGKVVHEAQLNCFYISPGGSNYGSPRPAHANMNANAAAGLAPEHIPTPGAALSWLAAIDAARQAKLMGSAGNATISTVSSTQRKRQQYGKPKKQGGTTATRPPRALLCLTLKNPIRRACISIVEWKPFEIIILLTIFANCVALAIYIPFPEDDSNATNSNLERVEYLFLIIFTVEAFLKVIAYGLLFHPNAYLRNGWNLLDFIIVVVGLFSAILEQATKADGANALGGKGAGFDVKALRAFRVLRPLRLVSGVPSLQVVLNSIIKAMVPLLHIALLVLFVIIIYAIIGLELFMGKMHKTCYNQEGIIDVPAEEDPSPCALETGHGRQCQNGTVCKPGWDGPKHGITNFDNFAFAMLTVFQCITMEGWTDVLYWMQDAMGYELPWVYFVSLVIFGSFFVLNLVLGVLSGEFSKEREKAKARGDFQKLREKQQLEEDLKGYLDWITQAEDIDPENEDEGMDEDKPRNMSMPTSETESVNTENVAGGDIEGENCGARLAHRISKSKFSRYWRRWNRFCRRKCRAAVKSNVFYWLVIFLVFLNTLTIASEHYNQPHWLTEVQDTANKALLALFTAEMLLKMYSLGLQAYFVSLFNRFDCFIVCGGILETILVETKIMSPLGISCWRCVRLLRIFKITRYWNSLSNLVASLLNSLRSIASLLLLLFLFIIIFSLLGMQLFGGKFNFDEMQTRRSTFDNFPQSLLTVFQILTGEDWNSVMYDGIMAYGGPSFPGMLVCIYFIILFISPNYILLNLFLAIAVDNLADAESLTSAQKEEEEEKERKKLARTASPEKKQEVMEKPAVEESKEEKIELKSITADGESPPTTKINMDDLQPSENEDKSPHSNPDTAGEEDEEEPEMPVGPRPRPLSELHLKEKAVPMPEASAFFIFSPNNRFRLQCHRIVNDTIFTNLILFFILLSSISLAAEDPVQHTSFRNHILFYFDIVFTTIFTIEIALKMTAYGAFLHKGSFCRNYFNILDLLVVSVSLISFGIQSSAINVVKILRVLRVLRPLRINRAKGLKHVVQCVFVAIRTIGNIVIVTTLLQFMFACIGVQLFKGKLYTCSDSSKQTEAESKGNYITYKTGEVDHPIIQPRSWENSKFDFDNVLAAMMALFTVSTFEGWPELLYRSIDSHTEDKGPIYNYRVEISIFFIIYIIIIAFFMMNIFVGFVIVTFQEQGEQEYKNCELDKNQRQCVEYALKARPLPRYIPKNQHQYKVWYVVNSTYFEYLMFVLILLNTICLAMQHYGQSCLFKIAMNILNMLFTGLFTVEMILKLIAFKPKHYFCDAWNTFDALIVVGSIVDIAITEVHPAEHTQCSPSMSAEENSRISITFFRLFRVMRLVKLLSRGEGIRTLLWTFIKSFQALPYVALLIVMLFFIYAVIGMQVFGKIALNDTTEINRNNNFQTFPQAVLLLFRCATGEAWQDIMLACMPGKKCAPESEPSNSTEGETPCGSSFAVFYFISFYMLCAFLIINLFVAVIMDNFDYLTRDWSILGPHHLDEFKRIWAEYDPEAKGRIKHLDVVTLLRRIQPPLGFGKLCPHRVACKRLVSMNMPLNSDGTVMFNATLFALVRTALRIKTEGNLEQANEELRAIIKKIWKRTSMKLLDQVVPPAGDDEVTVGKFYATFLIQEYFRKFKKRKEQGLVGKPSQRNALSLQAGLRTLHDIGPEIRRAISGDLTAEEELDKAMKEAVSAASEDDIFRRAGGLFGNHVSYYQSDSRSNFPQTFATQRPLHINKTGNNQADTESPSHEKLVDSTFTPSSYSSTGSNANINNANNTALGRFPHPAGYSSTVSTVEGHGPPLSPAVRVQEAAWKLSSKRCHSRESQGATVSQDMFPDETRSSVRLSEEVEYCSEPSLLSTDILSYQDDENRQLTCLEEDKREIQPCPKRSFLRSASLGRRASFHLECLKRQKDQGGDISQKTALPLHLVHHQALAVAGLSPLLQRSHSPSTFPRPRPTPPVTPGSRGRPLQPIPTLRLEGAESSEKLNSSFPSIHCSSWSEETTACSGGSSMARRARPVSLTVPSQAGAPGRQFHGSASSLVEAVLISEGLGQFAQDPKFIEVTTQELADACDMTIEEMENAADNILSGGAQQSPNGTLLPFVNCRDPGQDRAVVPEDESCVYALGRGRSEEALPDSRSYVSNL
Chain of 5-hydroxytryptamine receptor 2B (P41595 whole entry): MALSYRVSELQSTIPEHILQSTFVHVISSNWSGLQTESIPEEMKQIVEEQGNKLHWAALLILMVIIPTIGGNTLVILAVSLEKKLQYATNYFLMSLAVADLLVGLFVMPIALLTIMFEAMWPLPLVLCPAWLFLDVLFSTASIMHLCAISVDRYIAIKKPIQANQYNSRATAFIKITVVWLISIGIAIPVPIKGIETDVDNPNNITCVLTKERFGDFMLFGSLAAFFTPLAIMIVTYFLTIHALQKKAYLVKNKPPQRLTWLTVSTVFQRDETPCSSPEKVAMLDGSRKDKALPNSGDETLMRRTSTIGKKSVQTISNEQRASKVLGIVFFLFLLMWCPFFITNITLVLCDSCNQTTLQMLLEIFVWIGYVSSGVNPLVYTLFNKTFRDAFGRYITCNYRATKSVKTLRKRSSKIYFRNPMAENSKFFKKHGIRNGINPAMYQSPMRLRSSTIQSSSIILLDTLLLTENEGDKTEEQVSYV
Chain of Cannabinoid receptor 1 (P21554 whole entry): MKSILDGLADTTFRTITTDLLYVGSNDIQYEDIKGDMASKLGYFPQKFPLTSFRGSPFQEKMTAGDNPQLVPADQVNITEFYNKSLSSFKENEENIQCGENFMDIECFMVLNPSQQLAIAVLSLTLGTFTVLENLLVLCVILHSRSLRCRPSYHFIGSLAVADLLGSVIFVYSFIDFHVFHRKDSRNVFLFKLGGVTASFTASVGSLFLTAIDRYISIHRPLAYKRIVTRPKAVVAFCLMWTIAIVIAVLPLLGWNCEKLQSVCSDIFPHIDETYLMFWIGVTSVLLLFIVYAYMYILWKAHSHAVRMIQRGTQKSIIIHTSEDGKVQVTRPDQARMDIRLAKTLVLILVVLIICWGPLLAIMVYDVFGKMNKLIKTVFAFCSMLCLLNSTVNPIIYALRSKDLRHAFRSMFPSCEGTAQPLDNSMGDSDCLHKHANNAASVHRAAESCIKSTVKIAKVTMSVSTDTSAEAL
Chain of Melanocortin receptor 3 (P41968 whole entry): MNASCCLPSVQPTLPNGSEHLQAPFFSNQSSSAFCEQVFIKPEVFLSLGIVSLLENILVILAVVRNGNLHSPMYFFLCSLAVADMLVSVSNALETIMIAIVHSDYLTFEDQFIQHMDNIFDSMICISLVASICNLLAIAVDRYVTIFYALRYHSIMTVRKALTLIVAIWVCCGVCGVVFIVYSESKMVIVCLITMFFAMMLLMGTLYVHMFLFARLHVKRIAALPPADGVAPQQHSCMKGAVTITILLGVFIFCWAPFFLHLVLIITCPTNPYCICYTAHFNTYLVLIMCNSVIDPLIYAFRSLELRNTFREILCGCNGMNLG

CN1CCC[C@@H]1Cc1c[nH]c2ccc(CCS(=O)(=O)c3ccccc3)cc12
AC50 [1]: > 30 µM | AC50 [2]: > 30 µM

COc1nccnc1NS(=O)(=O)c1ccc(N)cc1
AC50 [1]: > 30 µM | AC50 [2]: > 30 µM

NC(=O)c1nc(F)c[nH]c1=O
AC50 [1]: > 30 µM | AC50 [2]: > 30 µM

CN(C)CCCN1C(=O)c2cc([N+](=O)[O-])ccc2Oc2ccccc21
AC50 [1]: 0.271 µM | AC50 [2]: > 30 µM

O=C(O)COc1nn(Cc2ccccc2)c2ccccc12 [BENDAZAC]
AC50 [1]: > 30 µM | AC50 [2]: > 30 µM

Cc1ccc([C@@H]2O[C@H](CO)[C@@H](O)[C@H](O)[C@H]2O)cc1Cc1ccc(-c2ccc(F)cc2)s1 [CANAGLIFLOZIN ANHYDROUS]
AC50 [1]: 26.1 µM | AC50 [2]: > 30 µM

CN(C)CCN(Cc1ccc(Cl)cc1)c1ccccn1 [CHLOROPYRAMINE]
AC50 [1]: 0.0202 µM | AC50 [2]: 6.52 µM

O=C(O)c1cc(=O)c2ccccc2o1 [CHROMOCARB]
AC50 [1]: > 30 µM | AC50 [2]: > 30 µM

CN(CC(=O)O)C(=N)N [CREATINE]
AC50 [1]: > 30 µM | AC50 [2]: > 30 µM

N[C@@H](CSSC[C@H](N)C(=O)O)C(=O)O [CYSTINE]
AC50 [1]: > 30 µM | AC50 [2]: > 30 µM

C#Cc1cccc(Nc2ncnc3cc(OCCOC)c(OCCOC)cc23)c1 [ERLOTINIB]
AC50 (Cannabinoid receptor 1): > 30 µM | AC50 [3]: > 30 µM | AC50 [4]: > 30 µM | AC50 [5]: > 30 µM | AC50 [6]: > 30 µM | AC50 [7]: > 30 µM | AC50 [8]: > 30 µM | AC50 [9]: > 30 µM | AC50 [2]: > 30 µM | AC50 (Melanocortin receptor 3): > 30 µM

C[C@]12CC[C@@H]3c4ccc(O)cc4CC[C@H]3[C@@H]1CC[C@@H]2OC(=O)CCC1CCCC1 [ESTRADIOL CYPIONATE]
AC50 [1]: > 30 µM | AC50 [2]: > 30 µM

CCC(=O)O[C@@H](O[P@](=O)(CCCCc1ccccc1)CC(=O)N1C[C@H](C2CCCCC2)C[C@H]1C(=O)O)C(C)C [FOSINOPRIL]
AC50 (Cannabinoid receptor 1): > 30 µM | AC50 (Histamine H2 receptor): > 30 µM | AC50 [1]: > 30 µM | AC50 [3]: > 30 µM | AC50 [4]: > 30 µM | AC50 [5]: > 30 µM | AC50 [10]: > 30 µM | AC50 [7]: > 30 µM | AC50 [8]: > 30 µM | AC50 [9]: > 30 µM

C[C@]12CCC(=O)C=C1CC[C@@H]1[C@@H]2[C@@H](O)C[C@@]2(C)[C@H]1CC[C@]2(O)C(=O)COC(=O)CCC(=O)O [HYDROCORTISONE HEMISUCCINATE ANHYDROUS]
AC50 [1]: > 30 µM | AC50 [2]: > 30 µM

N=C(N)NCc1cccc([123I])c1 [IOBENGUANE I 123]
AC50 [1]: > 30 µM | AC50 [2]: 10.7 µM

CC(C)(N)C(=O)N[C@H](Cc1c[nH]c2ccccc12)C(=O)N[C@H](Cc1c[nH]c2ccccc12)NC=O [MACIMORELIN]
AC50 [1]: > 30 µM | AC50 [2]: > 30 µM

C=C1c2c(Cl)ccc(O)c2C(=O)C2=C(O)[C@]3(O)C(=O)C(C(N)=O)=C(O)[C@@H](N(C)C)[C@@H]3[C@@H](O)[C@H]12 [MECLOCYCLINE]
AC50 [1]: > 30 µM | AC50 [2]: > 30 µM

Cc1cc2c(OCC(O)CNC(C)C)cccc2[nH]1 (stereo not drawn) [MEPINDOLOL]
AC50 [1]: > 30 µM | AC50 [2]: > 30 µM

CC(=O)Oc1ccccc1C(=O)Nc1ncc([N+](=O)[O-])s1 [NITAZOXANIDE]
AC50 (Cannabinoid receptor 1): > 30 µM | AC50 [11]: 10 µM | AC50 (Histamine H2 receptor): > 30 µM | AC50 [1]: > 30 µM | AC50 [3]: > 30 µM | AC50 [4]: > 30 µM | AC50 [5]: 0.45 µM | AC50 [6]: 5.1 µM | AC50 [10]: > 30 µM | AC50 [12]: > 30 µM | AC50 [7]: > 30 µM | AC50 [9]: 17 µM | AC50 (Melanocortin receptor 3): 14 µM

CN(C)c1cc(CNCC(C)(C)C)c(O)c2c1C[C@H]1C[C@H]3[C@H](N(C)C)C(O)=C(C(N)=O)C(=O)[C@@]3(O)C(O)=C1C2=O [OMADACYCLINE]
AC50 (Cannabinoid receptor 1): > 30 µM | AC50 [11]: > 30 µM | AC50 (Histamine H2 receptor): > 30 µM | AC50 [1]: > 30 µM | AC50 [3]: 29 µM | AC50 [4]: > 30 µM | AC50 [5]: > 30 µM | AC50 [6]: > 30 µM | AC50 [7]: > 30 µM | AC50 [9]: > 30 µM | AC50 (Melanocortin receptor 3): > 30 µM

CNC[C@H](O)c1cccc(O)c1 [PHENYLEPHRINE]
AC50 (Cannabinoid receptor 1): > 30 µM | AC50 [11]: > 30 µM | AC50 (Histamine H2 receptor): > 10 µM | AC50 [1]: > 30 µM | AC50 [3]: > 10 µM | AC50 [4]: > 30 µM | AC50 [5]: > 30 µM | AC50 [6]: > 10 µM | AC50 [10]: > 10 µM | AC50 [12]: > 10 µM | AC50 [7]: > 30 µM | AC50 [8]: > 10 µM | AC50 [9]: > 30 µM | AC50 (Melanocortin receptor 3): > 30 µM

CNC(=O)c1cc(Oc2ccc(NC(=O)Nc3ccc(Cl)c(C(F)(F)F)c3)c(F)c2)ccn1 [REGORAFENIB]
AC50 [1]: > 30 µM | AC50 [3]: > 30 µM | AC50 [6]: 21.9 µM | AC50 [7]: > 30 µM | AC50 (Melanocortin receptor 3): > 30 µM

CCCCNc1ccc(C(=O)OCCN(C)C)cc1 [TETRACAINE]
AC50 (Cannabinoid receptor 1): > 30 µM | AC50 [11]: > 30 µM | AC50 (Histamine H2 receptor): > 10 µM | AC50 [4]: > 10 µM | AC50 [5]: > 10 µM | AC50 [6]: > 10 µM | AC50 [10]: > 10 µM | AC50 [12]: > 10 µM | AC50 [7]: > 30 µM | AC50 [8]: > 10 µM | AC50 [9]: 33 µM | AC50 [2]: > 30 µM | AC50 (Melanocortin receptor 3): > 30 µM

Cn1c(=O)c2[nH]cnc2n(C)c1=O [THEOPHYLLINE]
AC50 (Cannabinoid receptor 1): > 30 µM | AC50 [11]: > 30 µM | AC50 (Histamine H2 receptor): > 10 µM | AC50 [4]: > 10 µM | AC50 [5]: > 30 µM | AC50 [6]: > 30 µM | AC50 [10]: > 10 µM | AC50 [12]: > 10 µM | AC50 [8]: > 10 µM | AC50 [9]: > 10 µM | AC50 [2]: > 10 µM | AC50 (Melanocortin receptor 3): > 30 µM

CN1CCN(CCCN2c3ccccc3Sc3ccc(S(=O)(=O)N(C)C)cc32)CC1 [THIOPROPERAZINE]
AC50 (Cannabinoid receptor 1): > 30 µM | AC50 (Histamine H2 receptor): > 30 µM | AC50 [1]: 17.3 µM | AC50 [3]: 12 µM | AC50 [5]: 6.14 µM | AC50 [10]: > 30 µM | AC50 [7]: > 30 µM | AC50 [9]: > 30 µM
